Read-outs that look alike come from different tables or passages of the source. Marks after values point to notes of the source that are not given here.
Key:
Rat H9C2 cardiomyocytes [1] = conditions: for OD: 800 μM ISO 24 h, MTT 570 nm; for Cell survival rate: rat, h9c2 cells, 24 h
Procedure: (§3) Rat H9C2 cardiomyocytes in the logarithmic growth phase were seeded into 96-well plates at a density of 7×10^4 cells/mL, with 100 μL per well. […] After 24 hours of culture, the drug groups were treated with 800 μM ISO and the corresponding concentrations of drugs. The ISO model group received 800 μM ISO and an equal volume of DMSO, and the blank control group received an equal volume of DMSO. The cells were then cultured for another 24 hours. After removing the supernatant, 100 μL MTT solution (0.5 mg/mL) was added to each well and incubated in the cell culture incubator for 4 hours. After removing the supernatant, 150 μL DMSO was added to each well, mixed by shaking for 10 minutes, and the absorbance was measured at 570 nm using a microplate reader to calculate cell viability. Cell viability (%)=[(As−Ab)/(Ac−Ab)]×100%. As: Experimental well (medium with cells, MTT, ISO); Ac: Control well (medium with cells, MTT, without ISO); Ab: Blank well (medium without cells, MTT, without ISO).

Rat H9C2 cardiomyocytes [2] = conditions: for OD: 10 μM, 50 μM Ang II 24 h, MTT 570 nm
Procedure: (§4) Rat H9C2 cardiomyocytes in the logarithmic growth phase were seeded at a density of 7×10^4 cells/mL into 96-well plates, with 100 μL per well. […] After 24 hours of culture, the drug treatment groups were respectively added with 50 μM Ang II and the corresponding concentration of the drug. The Ang II model group was added with 50 μM Ang II and an equal volume of DMSO, and the blank control group was added with an equal volume of DMSO. Then, the cells were cultured for another 24 hours. After removing the supernatant, 100 μL of MTT solution (0.5 mg/mL) was added to each well, and the plates were placed in an incubator for 4 hours. After removing the supernatant again, 150 μL of DMSO was added to each well, and the mixture was shaken and mixed evenly for 10 minutes. The absorbance was measured at 570 nm using a microplate reader to calculate the cell viability.
(§5) Cell viability (%)=[(As−Ab)/(Ac−Ab)]×100% • As: Experimental well (culture medium containing cells, MTT, Ang II); • Ac: Control well (culture medium containing cells, MTT, without Ang II); • Ab: Blank well (culture medium without cells, MTT, without Ang II).

H9C2 cardiomyocytes [3] = conditions: for OD: 6 h hypoxia, 12 h reoxygenation, CCK 450 nm; for Cell viability: rat, h9c2 cells
Procedure: (§6) H9C2 cardiomyocytes in the logarithmic growth phase were seeded into 96-well plates at a density of 7×10^4 cells/mL, with 100 μL per well.
(§7) After 24 hours of culture, the culture medium of the H/R and drug-treated groups was replaced with serum-free glucose-free DMEM medium (100 μL per well). The cells were then placed in an anaerobic incubator and cultured under hypoxic conditions in a 37° C. cell culture incubator. After 6 hours, the supernatant of the H/R and drug-treated groups was removed and replaced with high-glucose medium containing 10% fetal bovine serum (100 μL per well). Each drug-treated group received the corresponding concentration of the drug, while the H/R model group and the blank control group received an equal volume of DMSO.
(§8) After removing the supernatant, 100 μL of CCK solution (the volume of CCK accounted for 10% of the DMEM culture medium volume) was added to each well. The cells were cultured in the cell culture incubator for 1 hour, and the absorbance was measured at 450 nm using a microplate reader to calculate the cell viability. Cell viability was calculated as follows: Cell viability (%)=(Experimental well-Blank well)/(Control well-Blank well)×100%.

H9C2 cardiomyocytes [4] = test: cells; conditions: Rattus norvegicus, H9c2, read-out: Cell viability
Procedure: as §6, §7, §8

Rat H9C2 cardiomyocytes [5] = test: cells; conditions: H9c2, 24 h, read-out: Cell survival rate
Procedure: as §3

[6] = system: mice with isoproterenol (ISO)-induced ischemic heart disease; test: ISO-induced ischemic heart disease mouse model: serum ANP and NT-proBNP (ELISA); format: in vivo; conditions: 20 mg/kg intragastric once a day 11 days, ISO 40 mg/kg s.c. 7 times
Procedure: (§1) Male C57BL/6 mice were allowed to acclimate to the environment and then randomly divided into 9 groups, namely the blank control group, the ISO model group, the ISO+diltiazem 20 mg/kg positive control drug group, the ISO+Formula I (0.1, 0.5, 2 mg/kg) groups, and the ISO+Formula II (0.1, 0.5, 2 mg/kg) groups. Mice in the drug administration groups were intragastrically administered the corresponding doses of Formula I and Formula II compounds once a day at the same time. Mice in the positive drug diltiazem group were intragastrically administered the corresponding dose of diltiazem once a day. Mice in the blank control group and the model group were given the same amount of solvent (0.5% CMC-Na). The administration volume was 10 mL/kg, and the administration was continuous for 11 days.
(§2) From the 4th to the 10th day of drug administration, ISO modeling was carried out. The blank control group was subcutaneously injected with normal saline, and mice in the other groups were subcutaneously injected with ISO at a dose of 40 mg/kg (modeling was performed 2 hours after drug administration), for a total of 7 times.
Detection of Myocardial Hypertrophy/Heart Failure Biomarkers: After the drug administration ended, the animals' eyes were enucleated to collect blood. The blood was left to stand at room temperature for 2 hours, and then centrifuged at 3500 rpm for 20 minutes to separate the serum. The contents of serum ANP and NT-proBNP were determined according to the instructions of the ELISA kit.

H9C2 cardiomyocytes [7] = test: Angiotensin II (Ang II)-induced cardiomyocyte hypertrophy model, crystal violet, cell surface area; format: cell-based, rat; conditions: 10 μM; 40 μM Ang II 24 h; mean of 5 views
Procedure: Adjust the H9C2 cardiomyocytes in the logarithmic growth phase to a density of 1.2×10^5 cells/well and inoculate them into six-well plates. […] After culturing for 24 hours, the drug administration groups are added with 40 μM Ang II and the corresponding concentrations of drugs. The Ang II+diltiazem 10 μM group is added with 40 μM Ang II and 10 μM diltiazem. The Ang II model group is added with 40 μM Ang II and an equal volume of DMSO. The blank control group is added with an equal volume of DMSO. Then, continue culturing for 24 hours. Discard the culture medium, wash the cells 3 times with PBS. Add 1 mL of methanol to each well and fix the cells at −20° C. for 20 minutes, and then let them return to room temperature. After discarding the methanol, add 1 mL of 0.5% crystal violet staining solution to each well and stain for 10 minutes. Wash the cells with clean water and take pictures under an inverted microscope. Randomly select fields of view for photographing. Use Image J software to measure the sum of the surface areas of all cardiomyocytes in the field of view and count the number of cells in the field of view at the same time to obtain the surface area of each cardiomyocyte. The surface area of a single cardiomyocyte=the sum of the surface areas of all cardiomyocytes in the field of view/the number of cardiomyocytes in the field of view.

[8] = system: mice with isoproterenol (ISO)-induced ischemic heart disease; test: ISO-induced ischemic heart disease mouse model: serum CK-MB (ELISA); format: in vivo; conditions: 20 mg/kg intragastric once a day 11 days
Procedure: as §1, §2
Myocardial enzyme CK-MB detection: After the administration ended, blood was collected from the animals by enucleation. The blood was left to stand at room temperature for 2 hours, and then centrifuged at 3500 rpm for 20 minutes to separate the serum. The content of CK-MB in the serum was determined according to the instructions of the ELISA kit.

Rat H9C2 cardiomyocytes [9] = test: cells; conditions: H9c2, 24 h, read-out: Cell viability
Procedure: as §4, §5

[10] = system: mice with isoproterenol (ISO)-induced ischemic heart disease; test: ISO-induced ischemic heart disease mouse model: Ca2+ in myocardial tissue; format: in vivo; conditions: 20 mg/kg intragastric once a day 11 days
Procedure: as §1, §2
Calcium ion detection in myocardial tissue: After the experiment ended, some myocardial tissue was taken to prepare a 10% myocardial tissue homogenate with ultrapure water. The homogenate was centrifuged at 1200 rpm for 20 minutes at 4° C. to separate the supernatant of the myocardial tissue homogenate. The calcium ion content was determined according to the kit instructions; protein quantification was performed using the BCA protein assay method.

[11] = system: mice with isoproterenol (ISO)-induced ischemic heart disease; test: ISO-induced ischemic heart disease mouse model: myocardial tissue pathology (H&E); format: in vivo; conditions: 20 mg/kg, H&E
Procedure: as §1, §2
Pathological detection of myocardial tissue: After the experiment ended, the heart was washed with ice-cold physiological saline and dried with absorbent paper. It was then cut transversely into two halves. One-third of the part closer to the apex of the heart was fixed in a 4% paraformaldehyde solution. After dehydration with gradient ethanol and clearing with xylene, it was immersed in melted paraffin three times for embedding, 30 minutes each time. After embedding, continuous sections (about 4 μm thick) were made. Routine hematoxylin and eosin (H.E.) staining was performed. The pathological state of the myocardial tissue was observed under an optical microscope, photographed, and analyzed.
• −: No abnormalities were observed. • +: No myocardial tissue damage was seen. There was local hypertrophy of cardiomyocytes in the interventricular septum and papillary muscles, local edema and degeneration of cardiomyocytes, widening of the local muscle space in the lesion area, and mild non-specific inflammation in the interstitium. • ++: No obvious myocardial tissue damage (cardiomyocyte necrosis) was observed. There was local hypertrophy of cardiomyocytes in the interventricular septum and papillary muscles, local edema and degeneration of cardiomyocytes. Myofibril dissolution (disappearance of cross-striations) could be seen in local areas. The lesions were relatively limited and distributed in small foci. Non-specific inflammation was visible in the interstitium, and local fibrous tissue hyperplasia in the interstitium was noted. • +++: There was obvious hypertrophy of cardiomyocytes in the interventricular septum and papillary muscles, local edema and degeneration of cardiomyocytes. […] The lesion was limited to the subendocardium of the local interventricular septum (or papillary muscle), with a limited and small affected area. Non-specific inflammation was visible in the interstitium of the lesion area, and local fibrous tissue hyperplasia in the interstitium was noted. • ++++: The hypertrophy of cardiomyocytes in the interventricular septum and papillary muscles is remarkable. Locally, there is edema and degeneration of cardiomyocytes; there is obvious damage (necrosis of cardiomyocytes) in the myocardial tissue of the local interventricular septum and papillary muscles. The lesions are distributed in foci (or small patches), and the affected area is relatively large. […] Locally, there is edema and degeneration of cardiomyocytes; the damage (necrosis of cardiomyocytes) of the myocardial tissue of the local interventricular septum and papillary muscles is severe. The damage (necrosis) lesions are distributed in patches and are connected to each other. Transmural myocardial tissue damage of the interventricular septum and papillary muscles can be seen locally.

## Cc1c(O)c(C)c2occ(Cc3ccc4c(c3)OCO4)c(=O)c2c1O [methyl ophiopogonone A, reference compound]
Rat H9C2 cardiomyocytes [1]; 1 μM
  OD: 0.781 ± 0.029
Rat H9C2 cardiomyocytes [1]; 5 μM
  OD: 0.801 ± 0.045
Rat H9C2 cardiomyocytes [1]; 10 μM
  OD: 0.724 ± 0.024^(p = 0.09)
Rat H9C2 cardiomyocytes [1]; 1 µM
  Cell survival rate: 64.63%
Rat H9C2 cardiomyocytes [1]; 5 µM
  Cell survival rate: 66.28%
Rat H9C2 cardiomyocytes [1]; 10 µM
  Cell survival rate: 59.89%
Rat H9C2 cardiomyocytes [2]
  OD: 0.833 ± 0.041
Rat H9C2 cardiomyocytes [2]; rat, h9c2 cells, 24 h, 10 µM
  Cell viability: 77.40%
H9C2 cardiomyocytes [3]; 1 μM
  OD: 0.540 ± 0.034
H9C2 cardiomyocytes [3]; 5 μM
  OD: 0.501 ± 0.042
H9C2 cardiomyocytes [3]; 10 μM
  OD: 0.581 ± 0.054
H9C2 cardiomyocytes [3]; 1 µM
  Cell viability: 51.93%
H9C2 cardiomyocytes [3]; 5 µM
  Cell viability: 48.17%
H9C2 cardiomyocytes [3]; 10 µM
  Cell viability: 55.82%

## Cc1c(O)cc2occ(Cc3ccc4c(c3)OCO4)c(=O)c2c1O [Formula III]
Rat H9C2 cardiomyocytes [1]; 1 μM
  OD: 0.815 ± 0.041
Rat H9C2 cardiomyocytes [1]; 5 μM
  OD: 0.792 ± 0.061
Rat H9C2 cardiomyocytes [1]; 10 μM
  OD: 0.750 ± 0.065
H9C2 cardiomyocytes [4]
  viability at 0.1 µM: 53.1%
  viability at 0.3 µM: 48.1%
  viability at 1 µM: 53.4%
  viability at 3 µM: 55.8%
  viability at 5 µM: 52.2%
  viability at 10 µM: 50.6%
H9C2 cardiomyocytes [3]; 0.1 μM
  OD: 0.552 ± 0.067
H9C2 cardiomyocytes [3]; 0.3 μM
  OD: 0.500 ± 0.062
H9C2 cardiomyocytes [3]; 1 μM
  OD: 0.555 ± 0.053
H9C2 cardiomyocytes [3]; 3 μM
  OD: 0.580 ± 0.069
H9C2 cardiomyocytes [3]; 5 μM
  OD: 0.543 ± 0.037
H9C2 cardiomyocytes [3]; 10 μM
  OD: 0.527 ± 0.047
Rat H9C2 cardiomyocytes [5]
  viability at 1 µM: 67.4%
  viability at 5 µM: 65.5%
  viability at 10 µM: 62.1%

## COc1ccc([C@@H]2Sc3ccccc3N(CCN(C)C)C(=O)[C@@H]2OC(C)=O)cc1 [Diltiazem, reference compound]
Rat H9C2 cardiomyocytes [1]; 10 μM
  OD: 0.773 ± 0.029
H9C2 cardiomyocytes [4]
  viability at 10 µM: 50.2%
[6]
  ANP: 361.59 ± 46.95^ pg/mL
  NT-proBNP: 43.12 ± 2.93 pg/mL
Rat H9C2 cardiomyocytes [2]
  OD: 0.857 ± 0.042
H9C2 cardiomyocytes [7]
  Myocardial surface area: 392.02 ± 19.37^### μm^2
[8]
  CK-MB: 17.98 ± 2.88 ng/mL
Rat H9C2 cardiomyocytes [9]
  viability at 10 µM: 79.7%
H9C2 cardiomyocytes [3]; 10 μM
  OD: 0.522 ± 0.061
Rat H9C2 cardiomyocytes [5]
  viability at 10 µM: 63.9%
[10]
  Ca^2+: 0.057 ± 0.011 mmol/gprot
[11]
  The number of animals with lesion degree +: 3
  The number of animals with lesion degree ++: 1
  The number of animals with lesion degree +++: 4
  The number of animals with lesion degree ++++: 0
  The number of animals with lesion degree +++++: 0
  The number of animals with lesion degree −: 2
  average score of myocardial tissue lesion degree: 1.70 ± 1.25

From US20260285849A1, “METHYLOPHIOPOGONONE A DERIVATIVE, AND PREPARATION AND USE THEREOF” (INSTITUTE OF MATERIA MEDICA, CHINESE ACADEMY OF MEDICAL …, priority 2022, published 2026)
